Test results: PMC5943959, “Potent and Selective Carboxylic Acid Inhibitors of Tumor-Associated Carbonic Anhydrases IX and XII” (Molecules : A Journal of Synthetic Chemistry and Natural …, 2017)
Read-outs that look alike come from different tables or passages of the source.

Experiments:
hCA IV [1] = biological target: T1, hCA IV (Homo sapiens, UniProt P22748); assay: stopped-flow CO2 hydrase assay, hCA IV; format: biochemical
T1 construct: made in house

hCA I [2] = biological target: T2, hCA I (Homo sapiens, UniProt P00915); assay: stopped-flow CO2 hydrase assay, hCA I; format: biochemical
T2 construct: made in house

hCA IX [3] = biological target: T3, hCA IX (Homo sapiens, UniProt Q16790); assay: stopped-flow CO2 hydrase assay, hCA IX; format: biochemical; settings: for Selectivity Index hCA II/hCA IX: ratio of Ki values; for Ki: recombinant enzyme, errors ± 5–10%, 3 assays
T3 construct: made in house

hCA II [4] = biological target: T4, hCA II (Homo sapiens, UniProt P00918); assay: stopped-flow CO2 hydrase assay, hCA II; format: biochemical
T4 construct: made in house

hCA VII [5] = biological target: T5, hCA VII (Homo sapiens, UniProt P43166); assay: stopped-flow CO2 hydrase assay, hCA VII; format: biochemical
T5 construct: made in house

hCA XII [6] = biological target: T6, hCA XII (Homo sapiens, UniProt O43570); assay: stopped-flow CO2 hydrase assay, hCA XII; format: biochemical; settings: for Selectivity Index hCA II/hCA XII: ratio of Ki values
T6 construct: made in house

hCA VA [7] = biological target: T7, hCA VA (Homo sapiens, UniProt P35218); assay: stopped-flow CO2 hydrase assay, hCA VA; format: biochemical
T7 construct: made in house

hCA VA [8] = biological target: T7, hCA VA; set-up: method as in PMID 26121309; settings: values measured previously; cited from earlier work
hCA IX [9] = biological target: T3, hCA IX; set-up: method as in PMID 26121309; settings: values measured previously; cited from earlier work
hCA VII [10] = biological target: T5, hCA VII; set-up: method as in PMID 26121309; settings: values measured previously; cited from earlier work
hCA II [11] = biological target: T4, hCA II; set-up: method as in PMID 26121309; settings: values measured previously; cited from earlier work
hCA IV [12] = biological target: T1, hCA IV; set-up: method as in PMID 26121309; settings: values measured previously; cited from earlier work
[13] = test system: chronic myeloid leukemia cells; set-up: method as in PMID 26121309; settings: cited from earlier work
hCA I [14] = biological target: T2, hCA I; set-up: method as in PMID 26121309; settings: values measured previously; cited from earlier work
hCA XII [15] = biological target: T6, hCA XII; set-up: method as in PMID 26121309; settings: values measured previously; cited from earlier work
[16] = recombinant enzyme, errors ± 5–10%, 3 assays, read-out: Ki hCA IV
[17] = recombinant enzyme, errors ± 5–10%, 3 assays, read-out: Ki hCA I
[18] = recombinant enzyme, errors ± 5–10%, 3 assays, read-out: Ki hCA II
[19] = recombinant enzyme, errors ± 5–10%, 3 assays, read-out: Ki hCA VII
[20] = recombinant enzyme, errors ± 5–10%, 3 assays, read-out: Ki hCA XII
[21] = recombinant enzyme, errors ± 5–10%, 3 assays, read-out: Ki hCA VA

T6 sequence (O43570 25-354): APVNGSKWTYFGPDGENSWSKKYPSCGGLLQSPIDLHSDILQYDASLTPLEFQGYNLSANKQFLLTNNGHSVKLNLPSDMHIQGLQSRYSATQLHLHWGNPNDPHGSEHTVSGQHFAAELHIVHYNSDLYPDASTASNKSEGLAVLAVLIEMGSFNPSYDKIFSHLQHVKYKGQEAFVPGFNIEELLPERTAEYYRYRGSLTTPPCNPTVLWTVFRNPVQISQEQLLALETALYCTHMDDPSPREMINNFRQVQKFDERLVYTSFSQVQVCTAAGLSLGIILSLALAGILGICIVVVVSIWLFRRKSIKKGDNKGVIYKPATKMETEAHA
T7 sequence (P35218 39-305): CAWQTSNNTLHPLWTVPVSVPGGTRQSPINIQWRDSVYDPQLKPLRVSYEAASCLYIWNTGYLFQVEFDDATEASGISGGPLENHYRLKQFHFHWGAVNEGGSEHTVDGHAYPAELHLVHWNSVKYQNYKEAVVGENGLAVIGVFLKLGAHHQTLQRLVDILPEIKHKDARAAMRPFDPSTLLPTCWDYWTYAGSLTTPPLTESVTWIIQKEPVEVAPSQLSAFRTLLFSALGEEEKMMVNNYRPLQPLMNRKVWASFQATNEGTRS
T5 sequence (P43166 whole entry): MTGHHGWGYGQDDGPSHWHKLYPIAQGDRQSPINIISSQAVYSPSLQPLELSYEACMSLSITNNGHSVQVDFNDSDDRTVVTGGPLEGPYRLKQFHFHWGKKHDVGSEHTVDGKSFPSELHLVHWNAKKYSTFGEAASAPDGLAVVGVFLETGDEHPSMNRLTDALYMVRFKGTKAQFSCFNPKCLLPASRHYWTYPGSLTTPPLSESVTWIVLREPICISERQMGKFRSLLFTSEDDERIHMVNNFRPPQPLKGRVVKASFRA
T1 sequence (P22748 19-312): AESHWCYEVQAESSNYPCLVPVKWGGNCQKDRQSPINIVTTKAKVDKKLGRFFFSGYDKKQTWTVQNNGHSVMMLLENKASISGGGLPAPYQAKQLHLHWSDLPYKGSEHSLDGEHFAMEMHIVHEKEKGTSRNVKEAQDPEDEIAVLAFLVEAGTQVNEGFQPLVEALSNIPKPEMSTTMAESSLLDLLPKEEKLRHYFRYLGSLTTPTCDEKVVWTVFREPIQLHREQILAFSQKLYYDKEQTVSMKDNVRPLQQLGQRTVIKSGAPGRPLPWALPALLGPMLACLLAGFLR
T2 sequence (P00915 whole entry): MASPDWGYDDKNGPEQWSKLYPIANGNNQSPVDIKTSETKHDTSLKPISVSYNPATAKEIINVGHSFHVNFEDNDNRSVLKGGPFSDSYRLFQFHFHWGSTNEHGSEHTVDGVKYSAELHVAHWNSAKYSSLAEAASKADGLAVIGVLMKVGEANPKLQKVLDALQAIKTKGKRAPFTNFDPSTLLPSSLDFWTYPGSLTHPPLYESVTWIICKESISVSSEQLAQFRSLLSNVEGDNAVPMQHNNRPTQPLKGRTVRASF

Row | Compound | Ki (hCA IV [1]; [16]) [µM] | Ki (hCA I [2]; [17]) [µM] | Selectivity Index hCA II/hCA IX (hCA IX [3]) | Ki (hCA IX [3]) [nM] | Ki (hCA II [4]; [18]) [µM] | Ki (hCA VII [5]; [19]) [µM] | Selectivity Index hCA II/hCA XII (hCA XII [6]) | Ki (hCA XII [6]; [20]) [nM] | Ki (hCA VA [7]; [21]) [nM] | Ki (hCA I [2]) [µM] | Ki (hCA VA [7]) [nM] | also measured
1 | O=C(O)c1ccc(Sc2ccccn2)c([N+](=O)[O-])c1 [Compound 10] | > 50 | 6.65 | >3125 | 16 | > 50 | 0.665 | >609.01 | 82.1 | 142 | – | – | –
2 | O=C(O)c1ccc(Sc2ccccc2C(=O)O)c([N+](=O)[O-])c1 [Compound 4] | > 50 | – | 15.3 | 172 | 2.63 | > 50 | – | > 50000 | – | 6.02 | > 50000 | –
3 | O=C(O)c1ccc(Sc2nnnn2-c2ccccc2)c([N+](=O)[O-])c1 [Compound 17] | 3.56 | > 50 | >2136.8 | 23.4 | > 50 | > 50 | >113.4 | 441 | 739 | – | – | –
4 | O=C(O)c1ccc(Sc2nnc(Sc3ccc(C(=O)O)cc3[N+](=O)[O-])s2)c([N+](=O)[O-])c1 [Compound 8] | – | – | – | 26.3 | – | – | – | – | – | 6.45 | > 50000 | Ki (hCA IV [1]): 8.8 µM; Ki (hCA II [4]): 0.801 µM; Ki (hCA VII [5]): > 50 µM; hCA VII inhibition (in words) (hCA VII [5]): inactive; Ki (hCA XII [6]): 912 nM
5 | O=C(O)c1cc([N+](=O)[O-])c(NCCc2ccccc2)c([N+](=O)[O-])c1 [GV2-20] | – | – | 1.59 | – | – | – | 7.01 | – | – | – | – | Ki (hCA VA [8]): 895 nM; Ki (hCA IX [9]): 42.3 nM; Ki (hCA VII [10]): 8.7 nM; Ki (hCA II [11]): 67.3 nM; Ki (hCA IV [12]): 7.66 µM; antiproliferative effects [13]: antiproliferative effects; Ki (hCA I [14]): 352 nM; Ki (hCA XII [15]): 9.6 nM
6 | O=C(Cc1ccccc1)Nc1ccc(C(=O)O)cc1 [Compound 18] | > 50 | 2.73 | 104.8 | 72.8 | 7.63 | > 50 | 12.1 | 629 | 262 | – | – | –
7 | O=C(CSc1nnc(-c2ccncc2)s1)Nc1cc(C(=O)O)cc([N+](=O)[O-])c1 [Compound 14] | > 50 | – | >2174.0 | 23 | > 50 | > 50 | >103.7 | 482 | 449 | > 50 | – | –
8 | CC1OC(Nc2cc(C(=O)O)cc([N+](=O)[O-])c2)C(O)C(O)C1O (stereo not drawn) [Compound 2] | > 50 | – | 68.3 | 106 | 7.24 | > 50 | – | > 50000 | – | 5.65 | 1350 | –
9 | Cc1ccc(S(=O)(=O)c2ccc(C(=O)O)cc2[N+](=O)[O-])cc1 [Compound 11] | > 50 | – | >857.6 | 58.3 | > 50 | > 50 | >64.3 | 778 | 356 | > 50 | – | –
10 | O=C(O)c1ccc(NCc2cccnc2)c([N+](=O)[O-])c1 [Compound 13] | > 50 | > 50 | >471.7 | 106 | > 50 | > 50 | >79.0 | 633 | 117 | – | – | hCA VII inhibition (in words) (hCA VII [5]): inactive
11 | CC1=NN(c2ccc(C)cc2)C(=O)/C1=C/Nc1ccc(C(=O)O)cc1[N+](=O)[O-] [Compound 16] | 6.03 | – | >1661.1 | 30.1 | > 50 | 1.73 | >142.0 | 352 | 154 | > 50 | – | –

Further lines, with some results ahead:

Row | Ki (hCA IV [1]; [16]) [µM] | Ki (hCA I [2]; [17]) [µM] | Selectivity Index hCA II/hCA IX (hCA IX [3]) | Ki (hCA IX [3]) [nM] | Ki (hCA II [4]; [18]) [µM] | Ki (hCA VII [5]; [19]) [µM] | Selectivity Index hCA II/hCA XII (hCA XII [6]) | Ki (hCA XII [6]; [20]) [nM] | Ki (hCA VA [7]; [21]) [nM] | Ki (hCA I [2]) [µM] | Ki (hCA VA [7]) [nM] | Compound | also measured
12 | 5.09 | 0.7 | 11.88 | 55.1 | 0.655 | 0.325 | 23.99 | 27.3 | 826 | – | – | O=C(O)c1ccc(Sc2nnc(-c3cccc(Br)c3)o2)c([N+](=O)[O-])c1 [Compound 1] | Ki against hCA II, fold higher than that of AAZ (hCA II [4]; relative to AAZ): around 54 fold; Ki against hCA II, fold higher than that of GV2-20 (hCA II [4]; relative to GV2-20): around 10 fold; drop of inhibitory potency against hCA VII compared to GV2-20 (hCA VII [5]; relative to GV2-20): around 37 fold
13 | > 50 | – | 263.1 | 30.6 | 8.05 | > 50 | – | > 50000 | – | 8.21 | > 50000 | CCOC(=O)C1CCN(c2ccc(C(=O)O)cc2[N+](=O)[O-])CC1 [Compound 6] | hCA XII inhibition (in words) (hCA XII [6]): not active
14 | > 50 | – | 264.9 | 27.6 | 7.31 | > 50 | – | > 50000 | – | > 50 | 1460 | CS(=O)(=O)c1ccc(C(=O)O)cc1[N+](=O)[O-] [Compound 7] | hCA XII inhibition (in words) (hCA XII [6]): not active
15 | > 50 | – | >632.1 | 79.1 | > 50 | > 50 | – | 648 | 92.5 | > 50 | – | N#Cc1ccc(NCCc2ccccc2)c([N+](=O)[O-])c1 [Compound 19] | hCA VII inhibition (in words) (hCA VII [5]): inactive
16 | > 50 | > 50 | 34.9 | 209 | 7.3 | 0.84 | – | > 50000 | 1310 | – | – | O=C(O)c1ccc(N2CCc3ccccc32)c([N+](=O)[O-])c1 [Compound 3] | –
17 | 8.27 | – | 51.5 | 165 | 8.5 | 0.762 | 11.3 | 753 | – | > 50 | > 50000 | Cc1cc(C(=O)Nc2cc(C(=O)O)cc([N+](=O)[O-])c2)no1 [Compound 9] | –
18 | > 50 | – | >326.8 | 153 | > 50 | > 50 | >57.9 | 863 | 1160 | 8.15 | – | O=C(O)c1ccc(NCCc2ccc(Cl)cc2)c([N+](=O)[O-])c1 [Compound 5] | hCA VII inhibition (in words) (hCA VII [5]): inactive
19 | 9.2 | – | >2024.3 | 24.7 | > 50 | > 50 | >69.1 | 724 | 110 | > 50 | – | CC(C)(C)OC(=O)N1CCC(Nc2ccc(C(=O)O)cc2[N+](=O)[O-])CC1 [Compound 15] | –
20 | > 50 | – | – | 82 | > 50 | > 50 | – | 91.9 | 144 | > 50 | – | CC(=O)Nc1cccc(Nc2c([N+](=O)[O-])cc(C(=O)O)cc2[N+](=O)[O-])c1 [Compound 12] | –
